The target of one experiment is rat H3R (Rattus norvegicus (Rat), UniProt Q9QYN8). Description: GTPγS functional assay, membranes from C6 cells expressing the rat H3R. In kind it is biochemical. The following applies: for Emax: 5 min, read-out: Rat Maximum (%); for EC50: GTPγS agonist potency. The method, then: (§1) Membranes from HEK cells expressing the human H3R, or from C6 cells expressing the rat H3R, were prepared by homogenization in cold buffer containing 50 mM Tris-HCl (pH 7.4), 5 mM EDTA, 10 mM MgCl2, 1 mM benzamidine, 2 μg/ml aprotinin, 1 μg/ml leupeptin, and 1 μg/ml pepstatin. The homogenate was centrifuged at 40,000 g for 20 min at 4° C., and the resulting pellet was resuspended in 50 mM Tris-HCl (pH 7.4), 5 mM EDTA, and 10 mM MgCl2 and homogenized. Glycerol and bovine serum albumin were added to a final concentration of 10% glycerol and 1% bovine serum albumin. Membranes were diluted in GTPγS assay buffer (25 mM HEPES, 2.5 mM MgCl2, and 75 mM NaCl, pH 7.4) and 10 μg of membrane protein was incubated in a 96-well deep-well block in the presence of 5.0 μM unlabeled GDP, approximately 0.5 nM of [^35S]GTPγS, and increasing concentrations of test compounds. Samples were incubated at 37° C. for 5 min and the assays were terminated by the addition of cold buffer (50 mM Tris-HCl, 75 mM NaCl, and 2.5 mM MgCl2, pH 7.6) and subsequent harvesting onto a Packard Unifilter 96-well GF/B plate followed by extensive washing. Microscint 20 (PerkinElmer Life Sciences) was added to the samples, and bound [^35S]GTPγS was determined using the Topcount (Perkin Elmer Life Sciences). The percentage of [^35S]GTPγS bound in each sample was calculated as a percentage of that bound to control samples incubated in the absence of the H3R agonists (basal). Data were analyzed from experiments performed in triplicate using GraphPad Prism to obtain pEC50 values, Hill slopes, and maximal % response.
rat H3R, sequence (Q9QYN8 whole entry): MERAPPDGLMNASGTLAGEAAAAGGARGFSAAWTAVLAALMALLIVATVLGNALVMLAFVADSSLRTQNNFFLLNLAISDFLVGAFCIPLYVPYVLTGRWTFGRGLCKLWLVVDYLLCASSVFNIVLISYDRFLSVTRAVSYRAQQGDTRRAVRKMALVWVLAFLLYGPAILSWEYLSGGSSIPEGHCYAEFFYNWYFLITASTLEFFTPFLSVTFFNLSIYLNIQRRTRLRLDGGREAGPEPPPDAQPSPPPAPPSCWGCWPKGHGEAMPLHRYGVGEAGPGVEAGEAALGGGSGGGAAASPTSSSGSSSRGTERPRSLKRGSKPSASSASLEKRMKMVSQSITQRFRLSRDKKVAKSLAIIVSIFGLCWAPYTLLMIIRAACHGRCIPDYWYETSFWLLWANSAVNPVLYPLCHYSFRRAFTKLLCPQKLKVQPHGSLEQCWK

The target of another experiment is human H3R (Homo sapiens (Human), UniProt Q9Y5N1). Description: GTPγS functional assay, membranes from HEK cells expressing the human H3R. Format: biochemical. The following applies: for Emax: 5 min, [35S]GTPγS bound as percentage of basal, read-out: Human Maximum (%); for EC50: GTPγS agonist potency. The method, then: as §1
human H3R, sequence (Q9Y5N1 whole entry): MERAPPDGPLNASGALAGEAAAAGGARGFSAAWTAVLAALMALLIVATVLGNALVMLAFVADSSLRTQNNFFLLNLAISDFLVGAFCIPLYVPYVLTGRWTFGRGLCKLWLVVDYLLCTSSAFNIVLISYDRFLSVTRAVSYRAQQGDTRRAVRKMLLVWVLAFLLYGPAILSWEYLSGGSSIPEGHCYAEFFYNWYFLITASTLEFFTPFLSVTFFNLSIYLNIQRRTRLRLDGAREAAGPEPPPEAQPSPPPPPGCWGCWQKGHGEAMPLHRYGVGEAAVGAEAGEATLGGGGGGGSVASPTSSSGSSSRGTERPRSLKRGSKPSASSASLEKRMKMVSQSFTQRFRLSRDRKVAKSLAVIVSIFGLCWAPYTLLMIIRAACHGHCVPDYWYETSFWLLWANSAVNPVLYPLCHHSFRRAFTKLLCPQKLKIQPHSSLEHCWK
For experiment [1], the target named is T1, human histamine H3 receptor (Homo sapiens (Human), UniProt Q9Y5N1). Briefly: Radioligand competition binding assay, human H3 receptor. The settings on record: [3H]-N-α-methylhistamine competition binding. In general terms: Displacement assays read how much labelled ligand stays bound in the presence of the test substance.
T1 sequence (Q9Y5N1 whole entry): as above
Experiment [2] addresses T1, human histamine H3 receptor. Description: FLIPR functional assay (Ca2+, HEK-293 cells coexpressing Gαqi5), human H3 receptor. The settings on record: for EC50: FLIPR agonist potency; for Emax: HEK293, FLIPR, percentage of the response to 1 μM RAMH, read-out: Human Maximum (%). In kind it is cell-based. The source says: There are many methods available to show the effectiveness of compounds as histamine H3 receptor ligands. Histamine H3 receptors from mammalian species have been cloned. Methods to clone, express, and assess the potency and functional activity of such cloned genes are well known to those skilled in the art of molecular biology. […] In the present case, to determine the potency and effectiveness of representative compounds of this invention as histamine-H3 receptor ligands (H3 receptor ligands), the following tests were conducted according to previously described methods (see Esbenshade, et al., Journal of Pharmacology and Experimental Therapeutics 2003, 305, 887-896, Esbenshade, et al., Biochemical Pharmacology 2004, 68, 933-945, and in Krueger, et al., Journal of Pharmacology and Experimental Therapeutics 2005, 314, 271-281): histamine H3 receptors were cloned and stably expressed in HEK-293 (human embryonic kidney) cells coexpressing a Gαqi5. Before testing, cells were loaded with a Ca^+2 sensitive fluorescent dye, in this case Fluo-4. For partial agonist or full agonist ligands, addition of compound to the cells led to an increase in intracellular Ca^+2 which was detected by FLIPR (Fluorescence Imaging Plate Reader; Molecular Devices, Sunnyvale, Calif.) technology. The fluorescence intensities measured before addition of the test compound were subtracted from the fluorescence intensities at later time points. Peak response values determined at each concentration of ligand were expressed as a percentage of the response obtained with a maximal concentration (1 μM) of the full agonist R-α-methyl-histamine (RAMH). Concentration versus response data were analyzed to obtain compound potency as EC50 values for full and partial agonists.

The target of experiment [3] is rat histamine H3 receptor (Rattus norvegicus (Rat), UniProt Q9QYN8). Description: Radioligand competition binding assay, rat H3 receptor. The settings on record: [3H]-N-α-methylhistamine competition binding. The method, then: To determine the effectiveness of representative compounds of this invention as histamine-3 receptor ligands (H3 receptor ligands), the following tests were conducted according to previously described methods (see European Journal of Pharmacology 1990, 188, 219-227; Journal of Pharmacology and Experimental Therapeutics 1995, 275, 598-604; Journal of Pharmacology and Experimental Therapeutics 1996, 276, 1009-1015; and Biochemical Pharmacology 1973, 22, 3099-3108).
rat histamine H3 receptor, sequence (Q9QYN8 whole entry): as the sequence (Q9QYN8 whole entry) above
The rat H3 receptor was cloned and expressed in cells, and competition binding assays carried out, according to methods previously described (see Esbenshade, et al. Journal of Pharmacology and Experimental Therapeutics 2005, 313, 165-175; Esbenshade et al., Biochemical Pharmacology 2004, 68, 933-945; and Krueger, et al. Journal of Pharmacology and Experimental Therapeutics 2005, 314, 271-281). Membranes were prepared from C6 or HEK293 cells, expressing the rat histamine H3 receptor, by homogenization on ice in TE buffer (50 mM Tris-HCl buffer, pH 7.4, containing 5 mM EDTA), 1 mM benzamidine, 2 μg/ml aprotinin, 1 μg/ml leupeptin, and 1 μg/ml pepstatin. The homogenate was centrifuged at 40,000 g for 20 minutes at 4° C. This step was repeated, and the resulting pellet was resuspended in TE buffer. Aliquots were frozen at −70° C. until needed. On the day of assay, membranes were thawed and diluted with TE buffer.
Membrane preparations were incubated with [^3H]-N-α-methylhistamine (0.5-1.0 nM) in the presence or absence of increasing concentrations of ligands for H3 receptor competition binding. The binding incubations were conducted in a final volume of 0.5 ml TE buffer at 25° C. and were terminated after 30 minutes. Thioperamide (30 μM) was used to define non-specific binding. All binding reactions were terminated by filtration under vacuum onto polyethylenimine (0.3%) presoaked Unifilters (Perkin Elmer Life Sciences) or Whatman GF/B filters followed by three brief washes with 2 ml of ice-cold TE buffer. Bound radiolabel was determined by liquid scintillation counting. For all of the radioligand competition binding assays, IC50 values and Hill slopes were determined by Hill transformation of the data and pKi values were determined by the Cheng-Prusoff equation.

Where [4] appears, read: [35S]GTPγS bound as percentage of basal.

Structures are written as SMILES. Where a name gives a salt, the structure may show the parent alone.

Usually EC50 stands for the concentration at which the effect is half-maximal. A higher EC50 goes with lower potency in that assay. The Ki is a dissociation constant, usually derived from enzyme kinetics or from competition with a known ligand. A lower Ki goes with higher affinity. As to `CN(C)CCNc1ccnc(N)n1` [Example 2, N^4-(2-(dimethylamino)ethyl)pyrimidine-2,4-diamine 2,2,2-trifluoroacetate], the Emax at rat H3R (setting [4]) came out at 183%; at human H3R, 160%; in experiment [2], 77.7%. For the same compound, the concentration giving a half-maximal response (EC50) came out at 339 nM at rat H3R, 525 nM at human H3R and 85.1 nM in experiment [2]. The Ki was 53.7 nM in experiment [1] and 20 nM in experiment [3].

In the case of `CN(C)CCN(C)c1ccnc(N)n1` [Example 3, N^4-(2-(dimethylamino)ethyl)-N^4-methylpyrimidine-2,4-diamine dihydrochloride], the Ki was 257 nM in experiment [1] and more than 309 nM in experiment [3].

`NCCCNc1ccnc(N)n1` [Example 6, N^4-(3-aminopropyl)pyrimidine-2,4-diamine dihydrochloride]: the Emax at rat H3R (setting [4]) stood at 168%; on human H3R, 162%; in experiment [2] it was 93%. Also, the EC50 stood at 309 nM at rat H3R, 537 nM at human H3R and 13.4 nM in experiment [2]. For the same compound, the Ki in experiment [1] worked out at 61.7 nM; in experiment [3] it was 13.2 nM.

As for `CNCCCNc1ccnc(N)n1` [Example 7, N^4-(3-(methylamino)propyl)pyrimidine-2,4-diamine dihydrochloride], the Ki in experiment [1] is 28.2 nM; in experiment [3] it was 81.3 nM.

Regarding `CN(CCCN)c1ccnc(N)n1` [Example 8, N^4-(3-aminopropyl)-N^4-methylpyrimidine-2,4-diamine dihydrochloride], the Ki in experiment [1] turned out to be 316 nM; in experiment [3], 195 nM.

As to `CN(C)CCCN(C)c1ccnc(N)n1.O=C(O)C(O)C(O)C(=O)O` [Example 9, N^4-(3-(dimethylamino)propyl)-N^4-methylpyrimidine-2,4-diamine(2R,3R)-2,3-dihydroxysuccinate], at rat H3R, a half-maximal effect (EC50) was put at 1950 nM. The “Rat Maximum (%)” value on rat H3R (setting [4]) was found to be 110%. The Ki in experiment [1] was 182 nM; in experiment [3], more than 309 nM.

Regarding `CC(C)(CN)CNc1ccnc(N)n1` [Example 11, N^4-(3-amino-2,2-dimethylpropyl)pyrimidine-2,4-diamine], the Emax at human H3R stood at 111%. This compound also had an EC50 on human H3R of 5750 nM. The Ki in experiment [1] is more than 339 nM; in experiment [3], more than 316 nM.

In the case of `Nc1nccc(NC2CCN(Cc3ccccc3)CC2)n1` [Example 12, N^4-(1-benzylpiperidin-4-yl)pyrimidine-2,4-diamine 2,2,2-trifluoroacetate], the results for the Emax at rat H3R (setting [4]) and on human H3R were 136% and 139%, respectively. For the same compound, the EC50 on rat H3R worked out at 324 nM; on human H3R, 871 nM. Moreover, the values for the inhibition constant Ki in experiment [1] and in experiment [3] were 72.4 nM and 24.5 nM, respectively.

`CN1CCN(c2ccnc(N)n2)CC1` [Example 13, 4-(4-methylpiperazin-1-yl)pyrimidin-2-amine]: the Emax at rat H3R (setting [4]) worked out at 135%; at human H3R, 127%. Further, the EC50 on rat H3R is 53.7 nM; at human H3R, 129 nM. The Ki in experiment [1] was 13.8 nM; in experiment [3], 7.41 nM.

In the case of `CC(C)(C)OC(=O)N1CCN(c2ccnc(N)n2)CC1` [Example 14, tert-butyl 4-(2-aminopyrimidin-4-yl)piperazine-1-carboxylate], the Ki in experiment [1] was more than 380 nM; in experiment [3], more than 355 nM. Besides, in experiment [2], the EC50 was 316 nM. In addition, the Emax in experiment [2] is 67.6%.

In the case of `Nc1nccc(N2C[C@H]3CN(Cc4ccccc4)C[C@H]3C2)n1` [Example 19, 4-((3aR,6aS)-5-benzylhexahydropyrrolo[3,4-c]pyrrol-2(1H)-yl)pyrimidin-2-amine], the Emax at rat H3R (setting [4]) was found to be 116%; in experiment [2], 50.2%. The EC50 at rat H3R was determined as 447 nM; in experiment [2] it was 2110 nM. The Ki in experiment [1] worked out at 158 nM; in experiment [3], 170 nM.

For `Nc1nccc(N2CCCN(Cc3ccccc3)CCC2)n1` [Example 21, 4-(5-benzyl-1,5-diazocan-1-yl)pyrimidin-2-amine], the Emax at rat H3R (setting [4]) turned out to be 135%; at human H3R, 120%. For the same compound, the EC50 at rat H3R came out at 214 nM; on human H3R, 115 nM. Further, the values for the Ki in experiment [1] and in experiment [3] were 162 nM and 55 nM, respectively.

Consider `Nc1nccc(NC2CNC2)n1` [Example 22, N^4-(azetidin-3-yl)pyrimidine-2,4-diamine trihydrochloride], for which the figures for the Emax on rat H3R (setting [4]) and on human H3R were 156% and 216%, respectively. The EC50 on rat H3R is 676 nM; at human H3R, 457 nM. Also, the Ki is 33.1 nM in experiment [1] and 97.7 nM in experiment [3].

On to `Nc1nccc(N2CCC3(CC2)CNC3)n1` [Example 23, 4-(2,7-diazaspiro[3.5]nonan-7-yl)pyrimidin-2-amine trihydrochloride], for which the Emax at rat H3R (setting [4]) was 126%; on human H3R it was 147%. Also, the EC50 on rat H3R came to 110 nM; at human H3R it was 513 nM. Further, the Ki in experiment [1] stood at 67.6 nM; in experiment [3], 12.3 nM.

Take `Nc1nccc(NC2CCNCC2)n1` [Example 24, N^4-(piperidin-4-yl)pyrimidine-2,4-diamine dihydrochloride]: the values for the Ki in experiment [1] and in experiment [3] were 324 nM and 105 nM, respectively.

As to `Nc1nccc(N2CCNCC2)n1` [Example 25, 4-(piperazin-1-yl)pyrimidin-2-amine dihydrochloride], the Emax at rat H3R (setting [4]) was 141%; on human H3R it was 150%. Moreover, the EC50 at rat H3R was determined as 30.2 nM; at human H3R, 132 nM. Besides, the Ki in experiment [1] was 24 nM; in experiment [3], 5.75 nM.

On to `C[C@@H](N)Cc1c[nH]cn1` [R-α-methyl-histamine (RAMH), R-α-methyl-histamine, reference compound], for which the Emax worked out at 224% on rat H3R (setting [4]) and 240% at human H3R.

For the origin of these results see US8796297B2, “4-substituted-2-amino-pyrimidine derivatives” (AbbVie Inc., priority 2009, dated 2014).
